Patent US5254801A, “Heterologous dominant conditional lethal gene which is a phosphonate monoester hydrolase and use thereof in plants” (Monsanto Company, priority 1990, dated 1993)
“Also recorded” adds a separate entry of the source.

Experiments:
[1] = target: T1, phosphonate monoester hydrolase (PEH) (Trinickia caryophylli, UniProt Q45087); experiment: Hydrolysis of protoxin to glyphosate by phosphonate monoester hydrolase; type: biochemical, Pseudomonas caryophilli PG2982
T1 sequence (Q45087 1-514): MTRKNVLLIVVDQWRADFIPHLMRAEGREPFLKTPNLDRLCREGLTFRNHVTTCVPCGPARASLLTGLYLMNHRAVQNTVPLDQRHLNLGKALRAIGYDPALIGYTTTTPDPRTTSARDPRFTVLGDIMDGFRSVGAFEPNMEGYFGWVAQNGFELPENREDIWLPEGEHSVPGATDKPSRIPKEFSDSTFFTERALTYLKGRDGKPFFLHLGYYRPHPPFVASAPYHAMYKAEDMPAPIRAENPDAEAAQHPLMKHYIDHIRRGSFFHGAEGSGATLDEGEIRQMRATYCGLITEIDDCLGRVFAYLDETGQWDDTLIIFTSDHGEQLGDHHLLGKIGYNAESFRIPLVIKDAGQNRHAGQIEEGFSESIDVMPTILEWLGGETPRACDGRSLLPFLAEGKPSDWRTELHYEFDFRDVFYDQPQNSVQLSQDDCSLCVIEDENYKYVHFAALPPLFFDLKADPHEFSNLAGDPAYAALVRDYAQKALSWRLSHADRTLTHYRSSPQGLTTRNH
Description: The critical tests for a prophytotoxin to be used in negative selection, cell ablation and as a gametocide are that the compound is non-phytotoxic per se but can be hydrolyzed into a phytotoxin by the phosphonate monoester hydrolase protein. The most general and specific method to determine if a protoxin is hydrolyzed to a toxic form of glyphosate is a HPLC assay. The compounds are dissolved at 100 mM concentration in a suitable buffer such as 10 mM TAPS, (N-Tris(hydroxymethyl)methyl-2-aminopropane sulfonic acid) pH 9.0. Triplicate samples (0.1 ml) of the compound are then diluted with 0.9 ml of 10 mM TAPS, pH 9.0 and with 0.9 ml 10 mM TAPS, pH 9.0 plus one unit (1 μmol/min) of enzyme. After 24 hour incubation at 25° C., the samples are injected onto a HPLC column for glyphosate analysis. […] The protoxin and glyphosate are separated on an anion exchange column. the glyphosate is oxidized as it elutes in the presence of bleach and is then derivatized by o-pthaldehyde to a fluorescent derivative which can be quantitatively measured by a fluorescence monitor. […] After two days, the plant is dissected into individual tissues and the amount of protoxin in each tissue determined. […] The tissue samples were then combusted and the amount of radiolabelled compound in each tissue determined by scintillation counting. […]

CP4 = experiment: Growth on glyceryl glyphosate as sole phosphate source; type: cell-based; settings: strain CP4; 0.2 mM in DF minimal medium
Description: (§1) Bacteria capable of degrading glyphosate are known (Hallas et al., 1988; Malik et al., 1989; and Moore et al., 1983; Heitkamp et al., 1990). Five of these bacteria (PG2482, LBAA, T10, T12 and CP4) and four strains of E. coli were screened for the rapid degradation of glyceryl glyphosate into inorganic phosphate. The bacteria were inoculated into 2 ml Dworkin-Foster(DF) minimal medium containing glucose, sodium gluconate and potassium citrate (each 0.1%) as carbon source and containing 0.2 mM glyceryl glyphosate as a phosphate source. The Dworkin-Foster minimal medium was made by combining 1 liter sterile H2 O with 1 ml each of A, B, C, E and F, 10 ml D, C-sources to final concentration of 0.1% each and P-source to 0.2 mM.
(§2) Bacteria which grew in this medium using glyceryl glyphosate as a sole phosphate source had the ability to cleave both the ester and the phosphonate bond to release the free phosphate. For these bacteria to be useful in the present invention, the first step in the mineralization of glyceryl glyphosate needed is the hydrolysis of the phosphonate ester. Each of the three bacteria which utilized glyceryl glyphosate as a phosphate source were then assayed for a phosphonate monoester hydrolase activity using an in vivo (3-^14 C-) glyceryl glyphosate assay. A 150 ml culture of each bacteria was grown in DF minimal medium with 0.2 mM HK2 PO4 as a phosphate source in a 500 ml flask, 30° C., with shaking. The bacteria were pelleted by centrifugation at 5,000×g for 10 min and resuspended at 10 mg fresh weight/ml. An assay mix included 50 μl cells plus 10 μl (3-^14 C-) glyceryl glyphosate (10,000 cpm/μl) and kept at 30° C. with shaking. After a three hour incubation period, the cells were pelleted in a microfuge and the supernatant injected onto an HPLC anion exchange column and glyphosate analyzed as described above. The pellet was washed twice with 1 ml 10 mM HEPES, pH 7.0, and resuspended in 25 μl buffer. The cells were lysed with 25 μl quench and the debris pelleted in a microfuge. The pellet extract was then analyzed for glyphosate product as described above. Glyphosate was found in the pellet extracts of these three bacteria indicating the presence of a phosphonate monoester hydrolase activity in these organisms.

T10 = experiment: as above; type: cell-based; settings: strain T10; 0.2 mM in DF minimal medium
Description: as §1, §2

SMILES: O=C(O)CNCP(=O)(O)OCC(O)CO (stereo not drawn) [glyceryl glyphosate, glycine, N-([hydroxy (2,3 dihydroxy propoxy)phosphonyl]methyl)]
- Substrate for / hydrolysis by phosphonate monoester hydrolase [1]: is a substrate for the phosphonate monoester hydrolases; also recorded: hydrolyze the glyceryl glyphosate into glycerol and glyphosate
- Glyceryl Glyphosate as Phosphate Source (CP4): No
- Glyceryl Glyphosate as Phosphate Source (T10): Yes
